Reference: patent US12663426B2, “Method and composition for measurement of nitric oxide” (The University of Chicago, priority 2019, dated 2026)

Tests used:
[1] = target: T1, NOS3 (Homo sapiens, UniProt P29474); experiment: Steady state NOS3 activity imaging at plasma membrane and TGN with NOckout probes; format: cell-based; settings: T-47D cells
T1 construct: endogenous, basal NOS3 activity was estimated at each of these sub-cellular locations in T-47D cells; endogenous in cells; host or cells: T-47D cells
Protocol: Image acquisition. T-47D cells were maintained as mentioned above in the cell culture section. Cells were washed twice with Hank's balanced salt solution (HBSS) before incubating them with 500 nM NOckout^TGN for 30 min or 500 nM NOckout^PM for 10 min at 37° C. followed by 3 washes with HBSS solution to remove any unloaded sensors. For steady state imaging (FIG. 1), cells were treated with indicated agonists or antagonists for 1 hr in complete RPMI-1640 medium. Care was taken not to exceed the final concentration of DMSO>1% at any time of the experiment. Additionally, 1% DMSO was used as a negative control in untreated (Basal) cells. […] The cells are then washed and imaged (FIG. 1f).
For simultaneous imaging cells were treated with 500 nM NOckout^TGN for 30 min where last 10 min cells were co-incubated with 500 nM NOckout^PM. In order to achieve lowest signal (PTIO, FIG. 1e-f) or to achieve bleaching profile (PTIO, FIG. 3e) cells were pre-treated with 500 μM PTIO for 15 minutes. Images were captured on a Laser scanning confocal Leica SP8 microscope using 63×, 1.4UV NA objective. Desired excitation and emission wavelengths was achieved using white light laser along with notch filters and acousto-optical tunable filters. A488, DAR and A647 were imaged using the following settings—Alexa488 (λex=488 nm, λem=500 nm to 540 nm), DAR (λex=554 nm, λem=565 nm to 610 nm) and Alexa647 (λex=647 nm, λem=665 nm to 710 nm).
Image analysis was performed using Fiji (Schindelin, J. et al. Fiji: an open-source platform for biological-image analysis. Nat Methods 9, 676-682 (2012)). Auto-fluorescence was subtracted from images for ratiometric analysis. For representation, images were further processed by smooth and despeckle functions. In order to present G/B or G/R images, a mask for each image was constructed using Otsu thresholding method, and mask-multiplied images were used for division. The ROI plugin in Fiji was used to select either TGN (Alexa647 channel) or PM (Alexa488 channel) and these ROIs were recalled in DAR channel to measure intensity in all three channels.
Next, endogenous, basal NOS3 activity was estimated at each of these sub-cellular locations in T-47D cells without explicitly activating NOS3. To do this, the ratiometric NOckout^PM response, i.e. the G/B ratio, was first measured under conditions where cells were depleted of NO using the NO scavenger 2-phenyl-4,4,5,5-tetramethylimidazoline-1-oxyl 3-oxide (PTIO, 300 μM) (Goldstein, S., Russo, A. & Samuni, A. Reactions of PTIO and carboxy-PTIO with *NO, *NO2, and O2−*. J Biol. Chem. 278, 50949-50955 (2003)). […] These two extreme cases provide the minimum and maximum G/B signals afforded by NOckout^PM in the cell (FIG. 1e-f). The G/B values under any subsequent condition are normalized to the maximum G/B signal. […]

[2] = test system: S-nitrosylation at the Golgi; experiment: Anti-S-nitrosocysteine immunostaining of T-47D cells; format: cell-based
Protocol: (§1) Immunofluorescence staining. Cells were cultured on a glass bottom 3.5 cm imaging dish to reach 60% confluency. […] Treated cells were then washed three times with 1× PBS (pH 7.4) and fixed using, 4% paraformaldehyde at room temperature (RT, 15 min). Subsequently, cells were permeabilized using 0.25% triton X-100 followed by blocking using 3% BSA in 1× PBS. Cells were then incubated with indicated primary antibodies—mouse monoclonal anti-eNOS antibody (SantaCruz Cat #sc-376751), Polyclonal Anti-S-nitrosocysteine antibody (Abeam Cat #ab94930 or Abeam Cat #ab50185), Rabbit polyclonal Anti-Giantin antibody (Abeam Cat #ab24586) or Mouse monoclonal Anti-GM130 antibody (BD Biosciences Cat #610822) in blocking buffer (3% BSA in 1× 4 PBS) for 1 hour at RT. Cells were then washed for 5 min with 1× PBS (3×). Respective secondary antibodies conjugated with either Alexafluor 488 or Alexafluor 647 were added to the cells and incubated for 1 hr at RT. Cells were washed again to remove excess secondary antibody using 1× PBS for 5 min (3×). Hoechst 33342 (5 μM) was added 10 min prior to imaging to stain nuclear DNA. Cells were then imaged on a Leica SP8 laser scanning confocal microscope using excitation wavelengths 405 nm (Hoechst), 488 nm (AlexaFluor 488) and 647 nm (AlexaFluor 647). Images were processed using Fiji and maximum z-projection of 2-3 z-planes are used in representative images.
In order to address the significance of the […] population of NOS3 at the TGN, T-47D cells were immunostained using an antibody specific to S-nitrosocysteine.
Similar observations were made in MCF-7 cells upon NO depletion (FIG. 23). These studies reveal that the Golgi is a cellular hot-spot for 5-nitrosylation of proteins by NOS3, where it is essential for the maintenance of Golgi architecture in breast cancer cells. […] In addition to Golgi fragmentation, NO scavenging also hampered cell growth by inducing cell sensescence (FIG. 24).

[3] = test system: T-47D cells; experiment: Golgi fragmentation (Giantin/GM130 immunofluorescence); format: cell-based
Protocol: as §1
Golgi fragmentation was quantified with immunofluorescence images of Golgi structural protein Giantin. Merge images of Hoechst and Giantin allowed identification of cell numbers and enumeration of Golgi fragments per cell (≤3 Golgi fragments per cell was considered intact Golgi) (Lee, J. E. et al. Dependence of Golgi apparatus integrity on nitric oxide in vascular cells: implications in pulmonary arterial hypertension. Am. J. Physiol. Heart Circ. Physiol. 300, H1141-58 (2011)). […]
Small molecule inhibitors were then screened to identify the molecular pathway by which NOS3 inhibition induces Golgi fragmentation. This is based on the rationale that inhibiting a protein on this pathway should also block methylene blue-induced Golgi fragmentation. […] A range of small molecule inhibitors against kinases that have previously ascribed roles in Golgi fragmentation were then used. DNA-PK with NU7441 was ruled out (Farber-Katz, S. E. et al. DNA damage triggers Golgi dispersal via DNA-PK and GOLPH3. Cell 156, 413-427 (2014)). Compounds containing an indirubin core have broad specificity for Cyclin dependent kinases (CDKs) and Src kinases. […] CDK1, CDK2 and CDK5 were ruled out, using (R)-Roscovitine (Rosco).

[4] = target: T2, NOS2 (Mus musculus, UniProt P29477); experiment: In cellulo specificity of NOckout to NO in LPS primed J774A.1 cells; format: cell-based; settings: LPS primed J774A.1 cells, 1400 W 10 μM
T2 construct: J774A.1 cells were treated with 1 μg/mL LPS for 12 h prior to the addition of NOckout; endogenous in cells; host or cells: J774A.1 macrophages primed with LPS
Protocol: Pharmacological inhibition: Pharmacological inhibition of different enzymes were performed by employing known inhibitors. […] Cells were bathed in inhibitors 1 h prior to the addition of NOckout probes during the specificity experiment performed in J774A.1 cells.
In cellulo specificity of NOckout to NO: In cellulo specificity of the NOckout probe towards NO^− was validated in J774A.1 cells. […] J774A.1 cells were treated with 1 μg/mL LPS for 12 h prior to the addition of NOckout (500 nM in HBSS) either in the presence or in absence of specific inhibitors. LPS addition was employed to induce the expression of NOS2NOX and MPO. […] After 90 minutes of incubation with the NOckout culture media was removed from the cells and three washes were performed using HBSS to remove extracellular NOckout before proceeding to the fluorescence imaging. […]
The in-cell specificity of NOckout can be evaluated by measuring the contribution of the reactive species produced by NOX, MPO and NOS2 to the observed fold change in G/R ratio upon LPS stimulation. […] As NOS2 activity is not pan-endosomal, specificity is given by quantifying the percentage of endosomes that show G/R values higher than the mean G/R value in endosomes of unstimulated, NOS2 inhibited cells, as the latter corresponds to basal endosomal NO levels (FIG. 6c).

[5] = test system: TLR-9 and TLR-21; experiment: Phagosomal NO in zebrafish microglia with NOckout^zCpG; format: in vivo
From the text: Zebrafish brain was imaged in the optic tectum using an upright Zeiss LSM-710 confocal microscope equipped with water immersion objectives (20×, or 40×). Zebrafish larvae (3-4 dpf were mounted dorsally in a 1.5% low-melting point agar-bed on a confocal imaging dish (3.5 cm glass bottom). E3-containing 0.003% MS-222 was present in the imaging dish though out the imaging section. For NOckout injected samples, images were acquired simultaneously in GFP, DAR, and A647N channels using excitation wavelengths 488 nm, […] from Argon-ion (488 nm), Helium-Neon (543 nm & 632 nm) laser sources respectively. pHrodo was imaged using the same settings as that of DAR.
Image analysis: A MATLAB based program called Findosome was used to calculate the (G/R) values of individual endosomes from the acquired images. […] For each ROI, the program calculates fluorescence intensities both in the normalizing channel (A647, R) as well as in the DAR (G) channel. […] From the results, (G/R) value for individual endosomes can be calculated. Phagosomal (G/R) values from the zebrafish microglia are calculated using Fiji software. […] Fluorescence intensities in A647 and DAR channels were calculated. […] For (G/R) ratio quantification experiments, only those vesicles that are present in both green (G) and red (R) channels were considered. […]

SMILES: CC(=N)NCc1cccc(CN)c1 [1400 W]
- G/B and G/R values of NOckout probes (NOS3 activity) [1]: no effect
- S-nitrosylation at the Golgi [2]: no change
- Golgi fragmentation by treatment alone [3]: none of these treatments fragmented the Golgi
- reduction of NOckout signal [4]: ~50%
- reduction of phagosomal G/R versus NOckout^zCpG [5]: ~50%
